Results: patent US10883963B2, “Electrochemical measurement using phenylenediamine derivative” (SEIKAGAKU CORPORATION, priority 2016, dated 2021)
Like-named read-outs stand apart in the source and are kept apart here.

Legend:
[1] = Stability of labeling substances and substrates in 0.1 M HEPES at 37° C., cyclic voltammetric measurement; format: physicochemical; details: for relative value of height of oxidation peak in voltammogram of free molecule (0 hours = 100%): 1.0 mM in 0.1 M HEPES pH 7.8, 37° C., light-shielded; for change of detected value in 2 hours after preparation: 0.1 M HEPES pH 7.8, 37° C.
Protocol: The labeling substances (pAP, MPDD, and DMPD) and the substrates for measurement (LGR-pAP, LGR-MPDD, LGR-DMPD) were dissolved into 0.1 M HEPES (pH 7.8) and prepared to be 1 mM, and were left to stand for 1 to 24 hours in an incubator at 37° C. Thereafter, a test was performed according to the following procedures.
As an electrochemical measurement method, cyclic voltammetry and a potential step chronoamperometric method were used. As a measuring device, a working electrode, a reference electrode, and a counter electrode, those described in <Measurement Conditions> below were used. In each measurement, the working electrode, the reference electrode, and the counter electrode were inserted in a solution, and respectively connected to connectors of a potentiostat for a working electrode, a reference electrode, and a counter electrode. After each measurement, the electrode surface of the working electrode was polished with […] polishing alumina, and cleaned with ultrapure water. In the cyclic voltammetric measurement, potential scanning was performed by setting an initial potential and a finish potential to 0 V, a first turnover potential to 0.4 V (0.6 V for LGR-pAP and LGR-DMPD, 0.7 V for LGR-MPDD), and a second turnover potential to −0.2 V, and the current was monitored. In the potential step chronoamperometric measurement, after 0.0 V was applied to the working electrode for 10 seconds, the potential was momentarily changed to 0.3 V, and the current was monitored for 35 seconds.
50 ml of test solutions (1.0 mM) of the respective substrates (LGR-pAP, LGR-MPDD, LGR-DMPD) and free molecules (pAP, MPDD, DMPD) were prepared by using 0.1 M HEPES (pH=7.8), put in a disposable 50 ml centrifuge tube (manufactured by IWAKI), and left to stand at 37° C. under light-shielded conditions. When a predetermined time (0.5 h, 1 h, 2 h, 4 h, and 24 h) elapsed, 5 ml was sampled from the test solution and subjected to cyclic voltammetric measurement. MPDD was measured when 6 hours and 8 hours elapsed as well. By using a test solution just after preparation, a measurement at a predetermined time of 0 hours was performed.

[2] = test system: Limulus reagent Endospecy ES-24S; assay: Limulus test (2): endotoxin measurement by voltammetric method using labeled substrates; format: biochemical; details: substrate for measurement 0.5 mM
Protocol: Limulus tests using the substrates for measurement acquired in <Reference Example 1> described above were performed, and measurements of endotoxin were performed by a voltammetric method. The test procedures are shown below.
The same conditions as those described in <Limulus Reaction> of <Example 2> described above were applied except that a cyclic voltammetric measurement was performed instead of the chronoamperometric measurement.
The same conditions as described in <Measurement Conditions> of <Example 1> above were applied.

[3] = Evaluation of quantitative performance: cyclic voltammetry and chronoamperometry of substrate / free molecule mixed solutions; format: physicochemical; details: mixed solution of substrate and free molecule, 0.1 M HEPES pH 7.8, vs. Ag/AgCl
Description: As a result of performing a cyclic voltammetric measurement in which the mixture ratio of a substrate and free molecule (labeling substance) was varied in stages, in a voltammogram of a mixed solution of LGR-pAP and pAP, two oxidation peaks at 0.15 V and 0.49 V were confirmed. From individual voltammograms of a substrate molecule and a free molecule, the peak near 0.49 V is considered to be derived from oxidation of LGR-pAP, and the peak near 0.15 V is considered to be derived from oxidation of pAP. Similarly, from a voltammogram of a mixed solution of LGR-DMPD and DMPD, an oxidation peak derived from LGR-DMPD was confirmed near 0.45V, and an oxidation peak derived from DMPD was confirmed near 0.19 V. Further, from a voltammogram of a mixed solution of LGR-MPDD and MPDD, an oxidation peak derived from LGR-MPDD was confirmed near 0.46 V, and an oxidation peak derived from MPDD was confirmed near 0.14 V. Further, when using any substrate, an oxidation peak current value of free molecules increased as the percentage of a free molecule increased. From these facts, it was considered that a concentration of free molecules in each mixed solution could be amperometrically quantified at a potential of 0.3 V vs. Ag/AgCl. Next, in each mixed solution, chronoamperometry was performed. […]
As an electrochemical measurement method, cyclic voltammetry and a potential step chronoamperometric method were used. […] In the cyclic voltammetric measurement, potential scanning was performed by setting an initial potential and a finish potential to 0 V, a first turnover potential to 0.4 V (0.6 V for LGR-pAP and LGR-DMPD, 0.7 V for LGR-MPDD), and a second turnover potential to −0.2 V, and the current was monitored. In the potential step chronoamperometric measurement, after 0.0 V was applied to the working electrode for 10 seconds, the potential was momentarily changed to 0.3 V, and the current was monitored for 35 seconds. […]

[4] = 1 mM; FIG. 4 of Patent Literature 1; cited from earlier work
[5] = test system: Limulus reagent Endospecy ES-24S; details: FIG. 8 of Patent Literature 1; cited from earlier work
[6] = 0 hours (just after preparation)

Row | SMILES | relative value of height of oxidation peak in voltammogram of free molecule (0 hours = 100%) [1, 6] | relative value of height of oxidation peak in voltammogram of free molecule (0 hours = 100%) ([1]; 0.5 h) | relative value of height of oxidation peak in voltammogram of free molecule (0 hours = 100%) ([1]; 1 h) | relative value of height of oxidation peak in voltammogram of free molecule (0 hours = 100%) ([1]; 2 h) | change of detected value in 2 hours after preparation [1] | Measured value B: maximum value of oxidation peak current value in Limulus test with substrate (labeling substance bonded to LGR) [2] | oxidation peak potential in cyclic voltammogram [3] | oxidation peak current value of labeling substance itself [4] | Measured value B: maximum value of oxidation peak current value in Limulus test with substrate (labeling substance bonded to LGR) [5]
1 | CN(C)c1ccc(N)cc1 [DMPD, N, N-dimethyl-p-phenylenediamine] | 100.0% | 95.3% | 94.3% | 84.5% | showed a tendency to successively decrease | 0.31 μA | ~0.19 V |  | 
2 | CNc1ccc(N)cc1 [MPDD, N-methyl-p-phenylenediamine] | 100.0% | 102.4% | 102.3% | 101.0% | no decrease | 0.60 μA | ~0.14 V |  | 
3 | Nc1ccc(O)cc1 [pAP, P-aminophenol, reference compound] | 100.0% | 94.2% | 95.0% | 83.0% | showed a tendency to successively decrease |  | ~0.15 V |  | 
4 | COc1ccc(N)cc1 [pMA, para methoxyaniline] |  |  |  |  |  |  |  | approximately 3.0 μA | 0.28 μA
